Measurements as given in patent US7709636B2, “Pyrazole sulfonylurea compound and herbicide” (Nissan Chemical Industries, Ltd., priority 2004, dated 2010).

What was measured:
Echinochloa crus-galli [1] = assay: Herbicidal effect test in submerged condition by treatment during weed-growth stage (1); type: in vivo; conditions: 0.64 g/a, treated at 1st to 2nd leaf stage, 3 weeks after treatment
Method: (§1) Herbicidal Effect Test in Submerged Condition by Treatment During Weed-Growth Stage (1) After alluvial soil was placed in a styrol cup of 1/30000 are, water was poured therein and mixed, and adjusted to a submerged condition of water depth 4 cm. After seeds of Echinochloa crus-galli, Scirpus juncoides and Monochoria vaginalis were sown in the cup, the plants were grown by putting the cup in a green house at 25 to 30° C. When Echinochloa crus-galli, Scirpus juncoides and Monochoria vaginalis reached 1st to 2nd leaf stage, the wettable powder of the present invention prepared according to Formulation Example 1 was diluted with water so as to give a predetermined formulation amount, and the surface of the water was treated with the diluted wettable powder. The herbicidal effect for each plant was investigated 3 weeks after treatment with the herbicide according to the criteria indicated in Test Example 1.

Monochoria vaginalis = assay: as above; type: in vivo; conditions: 0.64 g/a, treated at 1st to 2nd leaf stage, 3 weeks after treatment
Method: as §1

Scirpus juncoides = assay: as above; type: in vivo; conditions: 0.64 g/a, treated at 1st to 2nd leaf stage, 3 weeks after treatment
Method: as §1

Abutilon avicennae = assay: Herbicidal effect test by soil treatment; type: in vivo; conditions: 1.6 g/a, 3 weeks after treatment
Excerpt: (§2) Herbicidal Effect Test by Soil Treatment
(§3) Sterilized diluvial soil was placed in a plastic box having a size of length 21 cm, width 13 cm and depth 7 cm, seeds Echinochloa crus-galli, Digitaria adscendes, Setaria viridis, Avena fatua, Black-grass, Abutilon avicennae, Ambrosia elatior, Amaranthus retroflexus, Chenopodium album, Polygonum blumei, Stellaria media, Zea mays (corn), Glycine max (soybean), Oryza sativa (rice), Triticum aestivum (wheat) and Beta vulgaris (beat) were sown interspatially, covered with about 1.5 cm of soil, and then the wettable powder of the present invention prepared according to Formulation Example 1 was diluted with water so as to give a predetermined formulation amount, and the surface of the soil was uniformly treated with the diluted wettable powder by use of a small-sized spray. The herbicidal effect for each plant was investigated 3 weeks after treatment with the herbicide according to the criteria indicated in Test Example 1.

Amaranthus retroflexus = assay: Herbicidal effect test by soil treatment; type: in vivo; conditions: 1.6 g/a, 3 weeks after treatment
Excerpt: as §2, §3

Ambrosia elatior = assay: Herbicidal effect test by soil treatment; type: in vivo; conditions: 1.6 g/a, 3 weeks after treatment
Excerpt: as §2, §3

Avena fatua = assay: Herbicidal effect test by soil treatment; type: in vivo; conditions: 1.6 g/a, 3 weeks after treatment
Excerpt: as §2, §3

Beta vulgaris (beet) = assay: Herbicidal effect test by soil treatment; type: in vivo; conditions: 1.6 g/a, 3 weeks after treatment
Excerpt: as §2, §3

Black-grass = assay: Herbicidal effect test by soil treatment; type: in vivo; conditions: 1.6 g/a, 3 weeks after treatment
Excerpt: as §2, §3

Chenopodium album = assay: Herbicidal effect test by soil treatment; type: in vivo; conditions: 1.6 g/a, 3 weeks after treatment
Excerpt: as §2, §3

Digitaria adscendes = assay: Herbicidal effect test by soil treatment; type: in vivo; conditions: 1.6 g/a, 3 weeks after treatment
Excerpt: as §2, §3

Echinochloa crus-galli [2] = assay: Herbicidal effect test by soil treatment; type: in vivo; conditions: 1.6 g/a, 3 weeks after treatment
Excerpt: as §2, §3

Polygonum blumei = assay: Herbicidal effect test by soil treatment; type: in vivo; conditions: 1.6 g/a, 3 weeks after treatment
Excerpt: as §2, §3

Setaria viridis = assay: Herbicidal effect test by soil treatment; type: in vivo; conditions: 1.6 g/a, 3 weeks after treatment
Excerpt: as §2, §3

Stellaria media = assay: Herbicidal effect test by soil treatment; type: in vivo; conditions: 1.6 g/a, 3 weeks after treatment
Excerpt: as §2, §3

[3] = test system: Triticum aestivum (wheat); assay: Herbicidal effect test by soil treatment; type: in vivo; conditions: 1.6 g/a, 3 weeks after treatment
Excerpt: as §2, §3

corn (Zea mays) = assay: Herbicidal effect test by soil treatment; type: in vivo; conditions: 1.6 g/a, 3 weeks after treatment
Excerpt: as §2, §3

soybean (Glycine max) = assay: Herbicidal effect test by soil treatment; type: in vivo; conditions: 1.6 g/a, 3 weeks after treatment
Excerpt: as §2, §3

direct sown rice = assay: Herbicidal effect test by soil treatment; type: in vivo, Oryza sativa; conditions: 1.6 g/a, 3 weeks after treatment
Excerpt: as §2, §3

## COc1cc(OC)nc(NC(=O)NS(=O)(=O)c2c(C3=NOC(C)CO3)c(C)nn2C)n1 (stereo not shown) [Compound 9, N-((4,6-dimethoxypyrimidin-2-yl)aminocarbonyl)-1,3-dimethyl-4-(6-methyl-5H,6H-1,4,2-dioxadin-3-yl)pyrazole-5-sulfonamide]
Echinochloa crus-galli [1]
  herbicidal effect, A: Echinochloa crus-galli: 5 (Herbicidal rate 90% or more (almost complete death))
Monochoria vaginalis
  herbicidal effect, C: Monochoria vaginalis: 5 (Herbicidal rate 90% or more (almost complete death))
Scirpus juncoides
  herbicidal effect, B: Scirpus juncoides: 5 (Herbicidal rate 90% or more (almost complete death))
Abutilon avicennae
  herbicidal effect, H: Abutilon avicennae: 4 (Herbicidal rate 70% or more and less than 90%)
Amaranthus retroflexus
  herbicidal effect, J: Amaranthus retroflexus: 5 (Herbicidal rate 90% or more (almost complete death))
Ambrosia elatior
  herbicidal effect, I: Ambrosia elatior: 5 (Herbicidal rate 90% or more (almost complete death))
Avena fatua
  herbicidal effect, F: Avena fatua: 3 (Herbicidal rate 40% or more and less than 70%)
Beta vulgaris (beet)
  herbicidal effect, f: Beta vulgaris (beet): 5 (Herbicidal rate 90% or more (almost complete death))
Black-grass
  herbicidal effect, G: Black-grass: 5 (Herbicidal rate 90% or more (almost complete death))
Chenopodium album
  herbicidal effect, K: Chenopodium album: 5 (Herbicidal rate 90% or more (almost complete death))
Digitaria adscendes
  herbicidal effect, D: Digitaria adscendes: 4 (Herbicidal rate 70% or more and less than 90%)
Echinochloa crus-galli [2]
  herbicidal effect, A: Echinochloa crus-galli: 4 (Herbicidal rate 70% or more and less than 90%)
Polygonum blumei
  herbicidal effect, L: Polygonum blumei: 5 (Herbicidal rate 90% or more (almost complete death))
Setaria viridis
  herbicidal effect, E: Setaria viridis: 4 (Herbicidal rate 70% or more and less than 90%)
Stellaria media
  herbicidal effect, M: Stellaria media: 5 (Herbicidal rate 90% or more (almost complete death))
[3]
  herbicidal effect, e: Triticum aestivum (wheat): 5 (Herbicidal rate 90% or more (almost complete death))
Corn (Zea mays)
  herbicidal effect, b: corn (Zea mays): 5 (Herbicidal rate 90% or more (almost complete death))
Soybean (Glycine max)
  herbicidal effect, c: soybean (Glycine max): 5 (Herbicidal rate 90% or more (almost complete death))
Direct sown rice
  herbicidal effect, d: direct sown rice: 5 (Herbicidal rate 90% or more (almost complete death))
